Results: the supplement of paper PMC10307832

Assays:
Test in all cases: relative viability (nuclei count vs DMSO), 5 days (fraction); higher = more cells survive
Dabrafenib + Bortezomib = compound: CC(C)(C)c1nc(-c2cccc(NS(=O)(=O)c3c(F)cccc3F)c2F)c(-c2ccnc(N)n2)s1 [Dabrafenib] + CC(C)C[C@H](NC(=O)[C@H](Cc1ccccc1)NC(=O)c1cnccn1)B(O)O [Bortezomib] (partner 0.002 µM)
Procedure, shortened: (§1)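 A single step with final 0.05% Triton X-100, 1% formaldehyde and 1 ug/ml Hoechst fixed the cells and stained nuclei 5 days after treatment. Lung cancer cell lines in 1536-well plates had been treated by pin tool the day after seeding with one drug alone or a fixed anchor-drug dose plus five library-drug doses (not always all listed) in √10 steps, and nuclei were counted on 4× images. Relative viability is the ratio of nuclei in treated wells to nuclei in vehicle wells, taken as the median of duplicate plates.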

VX-702 + Dasatinib = compound: NC(=O)c1ccc(N(C(N)=O)c2c(F)cccc2F)nc1-c1ccc(F)cc1F [VX-702] + Cc1nc(Nc2ncc(C(=O)Nc3c(C)cccc3Cl)s2)cc(N2CCN(CCO)CC2)n1 [Dasatinib] (partner 0.075 µM)
Procedure, shortened: as §1

Dabrafenib + Linsitinib = compound: CC(C)(C)c1nc(-c2cccc(NS(=O)(=O)c3c(F)cccc3F)c2F)c(-c2ccnc(N)n2)s1 [Dabrafenib] + C[C@]1(O)C[C@@H](c2nc(-c3ccc4ccc(-c5ccccc5)nc4c3)c3c(N)nccn32)C1 [Linsitinib] (partner 1 µM)
Procedure, shortened: as §1

VX-702 + Palbociclib = compound: NC(=O)c1ccc(N(C(N)=O)c2c(F)cccc2F)nc1-c1ccc(F)cc1F [VX-702] + CC(=O)c1c(C)c2cnc(Nc3ccc(N4CCNCC4)cn3)nc2n(C2CCCC2)c1=O [Palbociclib] (partner 0.5 µM)
Procedure, shortened: as §1

Cell Line | relative viability (Dabrafenib + Bortezomib; first compound 0.003 µM) | relative viability (Dabrafenib + Bortezomib; first compound 0.009487 µM) | relative viability (Dabrafenib + Bortezomib; first compound 0.03 µM) | relative viability (Dabrafenib + Bortezomib; first compound 0.09487 µM) | relative viability (Dabrafenib + Bortezomib; first compound 0.3 µM) | relative viability (VX-702 + Dasatinib; first compound 0.02 µM) | relative viability (VX-702 + Dasatinib; first compound 0.2 µM) | relative viability (VX-702 + Dasatinib; first compound 0.6325 µM) | relative viability (VX-702 + Dasatinib; first compound 2 µM) | relative viability (Dabrafenib + Linsitinib; first compound 0.003 µM) | relative viability (Dabrafenib + Linsitinib; first compound 0.009487 µM) | relative viability (Dabrafenib + Linsitinib; first compound 0.03 µM) | relative viability (Dabrafenib + Linsitinib; first compound 0.09487 µM) | relative viability (Dabrafenib + Linsitinib; first compound 0.3 µM) | relative viability (VX-702 + Palbociclib; first compound 0.02 µM) | relative viability (VX-702 + Palbociclib; first compound 0.2 µM) | relative viability (VX-702 + Palbociclib; first compound 0.6325 µM) | relative viability (VX-702 + Palbociclib; first compound 2 µM)
NCI-H520 | 0.584 | 0.59 | 0.476 | 0.544 | 0.731 | 0.2 | 0.194 | 0.176 | 0.24 | 1.01 | 0.93 | 0.741 | 0.853 | 1.05 | 0.229 | 0.275 | 0.191 | 0.231
NCI-H647 | – | 0.778 | 0.789 | 1.19 | 1.03 | 0.151 | 0.171 | 0.211 | 0.246 | – | 1.04 | 1.21 | 1.17 | 1.01 | 0.349 | 0.373 | 0.378 | 0.495
NCI-H650 | – | 0.865 | 0.645 | 0.494 | 0.453 | 0.481 | – | 0.534 | 0.533 | – | 1.27 | 0.769 | 0.43 | 0.516 | 0.349 | 0.327 | 0.326 | 0.348
NCI-H661 | 0.647 | 0.868 | 0.437 | 0.719 | 0.789 | 0.841 | 0.811 | 0.995 | 1.06 | 0.501 | 0.594 | 0.375 | 0.521 | 0.52 | 0.413 | 0.409 | 0.409 | 0.408
NCI-H727 | – | 0.848 | 0.882 | 0.795 | 0.873 | 0.372 | 0.359 | 0.295 | 0.396 | – | 0.312 | 0.29 | 0.367 | 0.465 | 0.635 | 0.641 | 0.613 | 0.664
